Tests used:
[1] = system: store-operated Ca^2+ entry (SOCE); assay: Store-operated Ca2+ entry (SOCE) in isolated human eccrine sweat glands, thapsigargin-induced, Fura-2 340:380 ratio; format: cell-based; conditions: for IC50: half-maximal concentration from dose-response curve, isolated eccrine glands, 1 μM thapsigargin; for inhibition at 10 µM: reduction in 340:380 ratio at maximal inhibitor concentration 10^−5M, as % of control response, read-out: Potency (% inhibition at 10^−5M)
Experimental: Isolation of Human Eccrine Sweat Glands
Viable human eccrine sweat glands were isolated from samples of human skin (obtained under ethical consent).
Measurement of Intracellular Ca^2+ Concentration
Intracellular [Ca^2+]i was measured in isolated eccrine glands by plating them onto Matrigel coated glass coverslips and loading them with the calcium-sensitive, fluorescent dye Fura-2 by incubation (30-45 minutes, 37° C.) with the membrane-permeant, acetoxymethyl ester form of the dye (Fura-2AM). These coverslips (with dye-loaded glands) were then mounted in a small chamber attached to the stage of an inverted microscope, and the glands superfused (ca. 5 ml minute^−1, 37° C.) with physiological salt solution (PSS; composition (mM): NaCl 130, KCl 5, MgCl2 1, CaCl2 1, HEPES 20, D-Glucose 10, pH 7.4 with NaOH). Changes in [Ca^2+]i were detected using 340/380 nm excitation and 510 nm emission wavelengths, and data expressed as the 340:380 ratio.
Measurement of Store-Operated Ca^2+ Entry (SOCE)
To measure store-operated calcium entry (SOCE), independent of external membrane receptor activation, the following assay protocol was used. First, isolated glands were exposed to 1 μM thapsigargin in Ca^2+-free PSS for 3 minutes. As thapsigargin inhibits the Ca^2+-ATPase uptake pathway in intracellular Ca^2+ stores, this enables Ca^2+ to leak out of the store and subsequently trigger the activation of SOCE. In Ca^2+-free PSS, this process is represented by a very small rise in [Ca^2+]i. Glands were then exposed to 1 μM thapsigargin in Ca^2+-containing PSS for 2 minutes, thereby inducing a rapid increase in [Ca^2+]i via Ca^2+ entry into the cells via the open SOCE pathway. To complete the protocol, thapsigargin is finally removed by washing the glands with Ca^2+ -containing PSS, and allowing the resting [Ca^2+]i level to re-establish itself, and the intracellular Ca^2+ stores to refill. The effectiveness of selected SOCE channel inhibitors were assessed by repeating the above procedure in the presence of the inhibitor (at a chosen concentration) from the time at which thapsigargin was added to release the intracellular Ca^2+ stores, until the cells were finally washed following the Ca^2+ peak initiated by Ca^2+ entry. Dose-response curves were constructed for each inhibitor and the half-maximal concentration (IC50) determined. The potency of each inhibitor was also assessed by expressing the reduction in the 340:380 ratio observed at the maximum concentration (10^−5M) as a % of the control response (i.e. in the absence of inhibitor; see Table 1).

[2] = system: interleukin (IL)-6; assay: THP-1 in vitro anti-inflammation assay: IL-6 ELISA in supernatant of PMA-differentiated, LPS-treated THP1-XBlue cells; format: cell-based; conditions: 24 hours, LPS alone 24176
Experimental: The following procedure was used to test the anti-inflammation efficacy of the actives.
THP1-XBlue™ (Cat No: thpx-sp, InvivoGen) cells were cultured as a suspension in RPMI 1640 medium supplemented with 10% FBS, penicillin (10 U/mL)—streptomycin (10 μg/ML). Cells were differentiated in 24-well plates at the density of 5×10^5 cells/well with 100 nM PMA for 72 hours. Cells were then co-treated with pure E. coli lipopolysaccharides (LPS) and with active. After 24 hours, the supernatants were collected and measured for interleukin (IL)-6 as pro-inflammatory bio-marker using enzyme-linked immunosorbent assay (ELISA).

[3] = 20 μM active co-treated with E. coli LPS

Row | IC50 [1] | Compound | inhibition at 10 µM [1] | Concentration of IL-6 [2, 3] | Concentration of IL-6 ([2]; 10 μM active co-treated with E. coli LPS)
1 | 24 nM | COc1ccc(/C=C/C(=O)C(C)(C)C(=O)/C=C/c2ccc(OC)c(OC)c2)cc1OC [Formula 2] | 99% | – | –
2 | 91.2 nM | COc1cc(CCC(O)CC(O)CCc2ccc(O)c(OC)c2)ccc1O (stereo not drawn) [Formula 4, 1,7-bis(4-hydroxy-3-methoxyphenyl) heptane-3,5-diol] | 75.4% | 18218 pg/mL | –
3 | 138 nM | COc1ccc(CCC(O)C(C)(C)C(O)CCc2ccc(OC)c(OC)c2)cc1OC (stereo not drawn) [Formula 5, 1,7-bis (3,4-dimethoxyphenyl)-4,4-dimethylheptane-3,5-diol] | 76% | 9142 pg/mL | 14880 pg/mL

— patent US20190358138A1, “A PERSONAL CARE COMPOSITION” (Conopco, Inc., d/b/a UNILEVER, priority 2017, published 2019)
